Experimental data published in patent publication US20140051665A1, “PROSTATE CANCER THERAPY WITH HSP90 INHIBITORY COMPOUNDS” (SYNTA PHARMACEUTICALS CORP., priority 2011, published 2014).
Read-outs that look alike come from different tables or passages of the source.

Tests used:
[1] = test system: PC3 cells; experiment: Combination of AZD-7762 with ganetespib, killing of PC3 cells; type: cell-based, human
[2] = test system: DU145 cells (EGFR, STAT3, IGF-IR); experiment: Western blot of Hsp90 client proteins, DU145; type: cell-based, human; settings: for exposure required for significant reductions in p-EGFR expression: DU145
Source text: (§1) Prostate cancer cell lines were lysed in RIPA buffer (Cell Signaling Technology, Beverly, Mass. USA) and HeLa lysed by four rounds of freeze/thawing using 1× Reporter Lysis Buffer (Promega, Madison, Wis., USA) containing 0.4 M NaCl. Lysates were clarified by centrifugation and equal amounts of protein resolved by SDSPAGE before transfer to nitrocellulose membranes. Membranes were blocked with 5% skim milk in TBS with 0.5% Tween and immunoblotted with indicated antibodies. Antigen-antibody complexes were visualized using an Odyssey system (LI-COR, Lincoln, Nebr., USA).

[3] = test system: DU145 cells; experiment: Annexin V apoptosis assay by flow cytometry; type: cell-based, human; settings: DU145, 24 h, escalating doses
Experimental: (§2) For cell cycle analysis, PC3 and DU145 cells were seeded overnight at 0.3×10^6 cells/5 mL in a 6-well plate and then exposed to increasing concentrations of ganetespib (0-500 nM) for 24 h. Cells were harvested and stained with propidium iodide using the BD Cycle TEST PLUS Reagent Kit (BD Biosciences, San Jose, Calif., USA) according to the manufacturer's instructions. Twenty thousand cells were analyzed for their DNA content using a FACS Caliber cytometer (BD Biosciences, Billerica, Mass., USA). For the apoptosis assay in the DU145 cell line, cells were treated with ganetespib (10, 100 or 500 nM), 17-AAG (500 or 1000 nM) or control (DMSO) for 24 h. Following treatment cells were harvested and stained using a fluorescein-conjugated anti-Annexin V antibody (BD Biosciences) and apoptosis assessed by flow cytometry.

[4] = test system: PC3 cells; experiment: CellTiter-Glo cell viability assay, PC3; settings: read-out: cytotoxicity IC50
Experimental: (§3) The LNCaP, VCaP, 22Rv1, DU145 and PC3 human prostate cancer cell lines and HeLa cells were all purchased from the American Type Culture Collection (Manassas, Va., USA). Cells were maintained and cultured according to standard techniques at 37° C. in 5% (v/v) CO2 using culture medium recommended by the supplier. […] The Hsp90 inhibitors ganetespib and 17-AAG were synthesized at Synta Pharmaceuticals Corp. methyltrienolone (R1881) was purchased from Perkin-Elmer (Boston, Mass., USA).
(§4) Cellular viability was assessed using the CellTiter-Glo Luminescent Cell Viability Assay (Promega, Madison, Wis., USA) according to the manufacturer's protocol. Twenty-four hours after plating at 5×10^3 cells/well in triplicate in 96-well plates, cells were dosed with graded concentrations of ganetespib or 17-AAG for 72 h. CellTiter-Glo was added (50% v/v) to the cells, and the plates incubated for 10 min prior to luminescent detection in a SpectraMax Plus 384 microplate reader (Molecular Devices, Sunnyvale, Calif., USA). Data were normalized to percent of control and IC50 values used to determine the sensitivity of each line.

[5] = test system: VCaP cells; experiment: CellTiter-Glo cell viability assay, VCaP
Experimental: as §3, §4

[6] = test system: LNCaP cells; experiment: CellTiter-Glo cell viability assay, LNCaP
Experimental: as §3, §4

[7] = test system: 22Rv1 cells; experiment: CellTiter-Glo cell viability assay, 22Rv1; settings: read-out: cytotoxicity IC50, 22Rv1, 72 h
Experimental: as §3, §4

[8] = test system: DU145 cells; experiment: CellTiter-Glo cell viability assay, DU145; settings: read-out: cytotoxicity IC50
Experimental: as §3, §4

[9] = test system: PC3 tumor xenografts; experiment: In vivo prostate xenograft model; settings: for % T/C: PC3 xenografts in nude mice, i.v.
Experimental: Eight-week-old female immunodeficient nude mice (Charles River Laboratories, Wilmington, Mass.) were maintained in a pathogen-free environment, and all in vivo procedures were approved by the Synta Pharmaceuticals Corp. Institutional Animal Care and Use Committee. PC3 tumor cells were subcutaneously implanted into nude mice. […] Tumor volumes (V) were calculated by caliper measurements of the width (W), length (L), and thickness (T) of each tumor using the formula: V=0.5236(LWT). Tumor growth inhibition was determined as described previously.

[10] = test system: PCa cell lines (LNCaP, 22Rv1, PC-3, DU-145); experiment: Summary of potency in PCa cell line panel versus 17-AAG; type: cell-based, human
Experimental: as §4

[11] = test system: LNCaP cells (AR, p-AKT/AKT, CDK1); experiment: Western blot of Hsp90 client proteins, LNCaP; type: cell-based, human
Source text: as §1

[12] = test system: AR-specific transcriptional activity in LNCaP cells; experiment: Quantitative RT-PCR of AR-directed genes PSA and TMPRSS2; type: cell-based, human; settings: 250 nM ganetespib or 1 μM geldanamycin, 24 h, 10 nM R1881
Experimental: LNCaP cells were cultured in charcoal-stripped medium for 24 h and then treated with 250 nM ganetespib, 1 μM geldanamycin, or vehicle for 24 h in the absence or presence of 10 nM methyltrienolone (R1881). RNA was prepared from the LNCaP cells post-treatment using TRIzol reagent (Invitrogen, Grand Island, N.Y., USA). Previously reported prostate specific antigen (PSA), transmembrane protease, serine 2 (TMPRSS2), and 18S primer sets were used for target gene expression and were analyzed using SYBR green PCR Master mix in an ABI 7500 Fast sequence detection system. See, e.g., Agoulnik et al (2006), Androgens modulate expression of transcription intermediary factor 2, an androgen receptor coactivator whose expression level correlates with early biochemical recurrence in prostate cancer. Cancer Res 66 10594-10602. PSA and TMPRSS2 mRNA levels were normalized to 18S mRNA values.

[13] = test system: 22Rv1 cells (full-length AR, p-AKT/AKT, PARP); experiment: Western blot, 22Rv1; type: cell-based, human; settings: 22Rv1, 24 h
Source text: as §1

[14] = test system: full length AR; experiment: Expression of transfected full length AR in HeLa, immunoblot; type: cell-based; settings: 24 h, GA or 250 nM ganetespib, 10 nM R1881
Source text: HeLa cells were transiently transfected using a poly-L-lysine coupled adenoviral-mediated DNA transfer technique as previously described. […] The plasmid constructs used were pCR3.1-AR (encoding for full length AR) and pCR3.1-V7 (encoding for the V7 truncated AR isoform and which was a gift from Manjula Nakka and William Krause, Baylor College of Medicine).

[15] = test system: full-length AR activity; experiment: GRE-luciferase reporter assay in HeLa, full-length AR; type: cell-based
Experimental: HeLa cells were transiently transfected using a poly-L-lysine coupled adenoviral-mediated DNA transfer technique as previously described. […] The plasmid constructs used were pCR3.1-AR (encoding for full length AR) and pCR3.1-V7 (encoding for the V7 truncated AR isoform and which was a gift from Manjula Nakka and William Krause, Baylor College of Medicine). […] To determine the effect of Hsp90 inhibitors on AR and variant activity, HeLa cells were transiently transfected with 250 ng of GRE-luciferase reporter, 30 ng of pCR3.1 β-galactosidase, 3 ng of pCR3.1-AR, or 0.03 ng of pCR3.1-V7 and treated as above. Luciferase and β-galactosidase activities were measured and luciferase levels normalized to β-galactosidase levels as described previously.

[16] = test system: DU145 cells; experiment: Cell cycle analysis by flow cytometry, DU145; type: cell-based, human; settings: DU145, 0-500 nM, 24 h
Experimental: as §2

[17] = test system: PC3 cells; experiment: Cell cycle analysis by flow cytometry, PC3; type: cell-based, human; settings: PC3, 0-500 nM, 24 h
Experimental: as §2

[18] = test system: PC3 cells (IGF-1R); experiment: Western blot of Hsp90 client proteins, PC3; type: cell-based, human
Source text: as §1

[19] = test system: V7 truncated AR isoform; experiment: Expression of transfected V7 truncated AR in HeLa, immunoblot; type: cell-based; settings: 24 h, 1 mM GA or 250 nM ganetespib
[20] = test system: constitutive V7 activity; experiment: GRE-luciferase reporter assay in HeLa, V7 variant; type: cell-based
Source text: HeLa cells were transiently transfected using a poly-L-lysine coupled adenoviral-mediated DNA transfer technique as previously described. See, e.g., Nazareth et al (1996), Activation of the human androgen receptor through a protein kinase A signaling pathway. J Biol Chem 271 19900-19907. The plasmid constructs used were pCR3.1-AR (encoding for full length AR) and pCR3.1-V7 (encoding for the V7 truncated AR isoform and which was a gift from Manjula Nakka and William Krause, Baylor College of Medicine). For the expression study, HeLa cells were transfected with 3 ng of pCR3.1-AR or 0.5 ng of pCR3.1-V7 for 24 h. Cells were treated with R1881 (10 nM), GA (1 μM), and/or STA9090 (250 nM) or vehicle (ethanol and DMSO) for 24 hours prior to lysis and immunoblotting. To determine the effect of Hsp90 inhibitors on AR and variant activity, HeLa cells were transiently transfected with 250 ng of GRE-luciferase reporter, 30 ng of pCR3.1 β-galactosidase, 3 ng of pCR3.1-AR, or 0.03 ng of pCR3.1-V7 and treated as above. Luciferase and β-galactosidase activities were measured and luciferase levels normalized to β-galactosidase levels as described previously. See, e.g., Agoulnik et al (2003), Repressors of androgen and progesterone receptor action. J Biol Chem 278 31136-31148.

[21] = weekly dosing regimen; cited from earlier work
[22] = test system: DU-145 prostate carcinoma cells; experiment: alamarBlue cell viability assay, single agents and docetaxel combination; settings: DU-145 cells, 72 hr
[23] = read-out: cytotoxicity IC50, 72 h
[24] = Homo sapiens, 72 h, read-out: cytotoxicity IC50

NC(=O)Nc1cc(-c2cccc(F)c2)sc1C(=O)N[C@H]1CCCNC1 [AZD-7762]
combination effect with ganetespib in killing cells [1]: in synergy with ganetespib

C=CCNC1=C2C[C@@H](C)C[C@H](OC)[C@H](O)[C@@H](C)/C=C(\C)[C@H](OC(N)=O)[C@@H](OC)/C=C\C=C(/C)C(=O)NC(=CC1=O)C2=O [Compound 17-AAG, 17-AAG, reference compound]
exposure required for significant reductions in p-EGFR expression [2]: 18 h
apoptotic cells, Annexin V staining [3]: comparable proportion of apoptotic cells
IC50 ([4]; PC3, 72 h): 246 nM
IC50 [5, 23]: 2640 nM
IC50 [6, 23]: 265 nM
IC50 [7]: 1270 nM
IC50 ([8]; DU145, 72 h): 36 nM

CC(C)c1cc(-c2nnc(O)n2-c2ccc3c(ccn3C)c2)c(O)cc1O [Ganetespib, 3-(2,4-dihydroxy-5-isopropyl-phenyl)-4-(1-methyl-indol-5-yl)-5-hydroxy-[1,2,4] triazole]
tolerability of the regimen ([9]; 150 mg/kg weekly, nude mice): well tolerated
% T/C ([9]; once a week at 150 mg/kg for 4 weeks): 17%
% T/C ([9]; twice a week at 50 mg/kg for 4 weeks): 3%
IC50 fold less than 17-AAG [10]: 3-7 fold
time of destabilization of p-AKT/AKT ([11]; 100 nM): 18 h
time of loss of total and phosphorylated CDK1 ([11]; 100 nM): ≤ 24 h
time to measurable reduction in AR expression ([11]; 100 nM): ≤ 3 h
AR levels ([11]; 24 h, Western blot): potent and dose-dependent decrease
R1881 induction of PSA and TMPRSS2 mRNA [12]: significantly inhibited
dose sufficient to induce degradation of full-length AR, destabilization of p-AKT/AKT and apoptosis (cleaved PARP) [13]: ≤ 25 nM
androgen-increased full-length AR expression [14]: completely abrogated
full-length AR activity, luciferase assay [15]: strongly inhibited
exposure required for significant reductions in p-EGFR expression [2]: 18 h
STAT3 signaling ([2]; DU145, 24 h, Western blot): completely abrogated
apoptotic cells, Annexin V staining [3]: dose-dependent increase in apoptotic cells
cell cycle distribution [16]: dose-dependent accumulation of cells in the G2/M phase
cell cycle distribution [17]: dose-dependent accumulation of cells in the G2/M phase
time by which IGF-1R levels were reduced [18]: ≤ 6 h
expression of the variant (V7) receptor [19]: neither inhibitor significantly altered expression
constitutive V7 activity, luciferase assay [20]: less effective
highest non-severely toxic dose (HNSTD) [21]: 150 mg/kg
IC50 ([4]; Homo sapiens, PC-3, 72 h): 77 nM
IC50 [5, 24]: 7 nM
IC50 [6, 24]: 8 nM
IC50 ([7]; Homo sapiens): 2 nM
IC50 ([8]; Homo sapiens, DU-145, 72 h): 12 nM
IC50 [22]: 14 nM

CC(=O)O[C@@]12CO[C@@H]1C[C@H](O)[C@@]1(C)C(=O)[C@H](O)C3=C(C)[C@@H](OC(=O)[C@H](O)[C@@H](NC(=O)OC(C)(C)C)c4ccccc4)C[C@@](O)([C@@H](OC(=O)c4ccccc4)[C@H]21)C3(C)C [docetaxel, reference compound]
IC50 [22]: 1 nM
